Values quoted from earlier work in paper PMC8279981, “A first-in-human, phase 1 study of the NEDD8 activating enzyme E1 inhibitor TAS4464 in patients with advanced solid tumors” (Investigational New Drugs, 2021).
Read-outs that look alike come from different tables or passages of the source.

Key:
[1] = system: rats; parameters: method as in PMID 27551465, PMID 22927439; conditions: cited from earlier work
[2] = system: cells derived from macrophages; parameters: method as in PMID 22927439; conditions: cited from earlier work
[3] = system: bleomycin-induced idiopathic pulmonary fibrosis models; parameters: method as in PMID 28469786; conditions: cited from earlier work
[4] = system: patients; parameters: method as in PMID 26561559, PMID 25733005, PMID 27056178, PMID 26423795; conditions: clinical trials; cited from earlier work

Q: For NS(=O)(=O)OC[C@@H]1C[C@@H](n2ccc3c(N[C@H]4CCc5ccccc54)ncnc32)C[C@@H]1O [MLN4924], which “AST, ALT, sorbitol dehydrogenase” value ([1]; combination of TNF-α and MLN4924) is on record?
A: Increases in laboratory values

Q: What about the “AST, ALT, sorbitol dehydrogenase” value ([1]; rats, MLN4924 administration alone) of the same compound?
A: no increases in AST, ALT, or sorbitol dehydrogenase

Q: What about the “production of TNF-α” value [2] of the same compound?
A: suppress the production of TNF-α

Q: And the “efficacy in pulmonary fibrosis models” value [3]?
A: efficacy in bleomycin-induced idiopathic pulmonary fibrosis models has been shown

Q: What about the “abnormal liver function tests (ALT and AST increased)” value [4] of the same compound?
A: one of the major AEs
